Laboratory results from ChEMBL document CHEMBL5370554, “Discovery of a first-in-class Aurora A covalent inhibitor for the treatment of triple negative breast cancer” (Eur J Med Chem, 2023).
Activity calls are given as the source filed them. The calls are words filed in the database; no cut-off is given here.

Tests used:
[1] = Toxicity in BALB/c nude mouse xenografted with human MDA-MB-231 cells assessed as body weight change at 15 mg/kg,ip every 2days for 20 days; type: organism-based; settings: in vivo, 480 h, time 20 day
[2] = Toxicity in BALB/c nude mouse xenografted with human MDA-MB-231 cells assessed as parenchymal injury in lung at 15 mg/kg,ip every 2days for 20 days by Hematoxylin and Eosin staining based microscopy; type: organism-based; settings: in vivo, 480 h, time 20 day
[3] = Metabolic stability in Sprague-Dawley rat liver microsomes assessed as elimination rate constant at 1.75 uM incubated upto 60 mins in presence of NADPH by LC-MS analysis; type: ADME, Microsome
[4] = biological target: T1, Aurora kinase A (Homo sapiens) (UniProt O14965); test: Covalent binding affinity to recombinant human Aurora A (1 to 403 residues) expressed in Escherichia coli assessed as covalent adduct formation at Cys290 residue at 100 uM incubated for 4 hrs by UPLC-MS/MS analysis
T1 sequence (whole entry): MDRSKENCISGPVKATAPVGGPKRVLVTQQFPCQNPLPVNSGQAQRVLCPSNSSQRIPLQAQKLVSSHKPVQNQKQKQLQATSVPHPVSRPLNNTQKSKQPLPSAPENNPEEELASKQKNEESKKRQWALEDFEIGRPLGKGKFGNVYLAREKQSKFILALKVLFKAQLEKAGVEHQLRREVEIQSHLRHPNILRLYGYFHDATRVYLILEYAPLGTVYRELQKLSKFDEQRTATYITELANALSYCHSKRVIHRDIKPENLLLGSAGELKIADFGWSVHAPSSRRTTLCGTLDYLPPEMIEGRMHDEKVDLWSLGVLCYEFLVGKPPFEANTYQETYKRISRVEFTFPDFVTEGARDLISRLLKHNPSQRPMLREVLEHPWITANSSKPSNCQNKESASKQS

MDA-MB-231 [5] = test: Induction of apoptosis in human MDA-MB-231 cells assessed as early apoptotic cells at 5 uM incubated for 24 hrs by Annexin V-FITC staining based flow cytometry (Rvb= 3.3%); type: functional
MDA-MB-231 [6] = test: Induction of apoptosis in human MDA-MB-231 cells assessed as early apoptotic cells at 1.25 uM incubated for 24 hrs by Annexin V-FITC staining based flow cytometry (Rvb= 3.3%); type: functional
[7] = Toxicity in BALB/c nude mouse xenografted with human MDA-MB-231 cells assessed as parenchymal injury in kidney at 15 mg/kg,ip every 2days for 20 days by Hematoxylin and Eosin staining based microscopy; type: organism-based; settings: in vivo, 480 h, time 20 day
[8] = Metabolic stability in Sprague-Dawley rat liver microsomes assessed as intrinsic clearance at 1.75 uM incubated upto 60 mins in presence of NADPH by LC-MS analysis; type: ADME, Microsome; settings: read-out: CLH
HeLa = test: Antiproliferative activity against human HeLa cells assessed as inhibition of cell proliferation incubated for 48 hrs by CCK-8 assay; type: functional, cell-based
MDA-MB-231 [9] = test: Induction of apoptosis in human MDA-MB-231 cells assessed as late apoptotic cells at 5 uM incubated for 24 hrs by Annexin V-FITC staining based flow cytometry (Rvb= 6.90%); type: functional
[10] = biological target: Aurora kinase B (Homo sapiens) (UniProt Q96GD4); test: Inhibition of Aurora B in human MDA-MB-231 cells assessed as effect on Aurora B phosphorylation at 0.2 to 0.6 uM incubated for 1 hrs by Western blot analysis; type: cell-based; settings: dose 0.2-0.6 µM
Sequence of Aurora kinase B (Homo sapiens) (Q96GD4 whole entry, the tested form may be a part): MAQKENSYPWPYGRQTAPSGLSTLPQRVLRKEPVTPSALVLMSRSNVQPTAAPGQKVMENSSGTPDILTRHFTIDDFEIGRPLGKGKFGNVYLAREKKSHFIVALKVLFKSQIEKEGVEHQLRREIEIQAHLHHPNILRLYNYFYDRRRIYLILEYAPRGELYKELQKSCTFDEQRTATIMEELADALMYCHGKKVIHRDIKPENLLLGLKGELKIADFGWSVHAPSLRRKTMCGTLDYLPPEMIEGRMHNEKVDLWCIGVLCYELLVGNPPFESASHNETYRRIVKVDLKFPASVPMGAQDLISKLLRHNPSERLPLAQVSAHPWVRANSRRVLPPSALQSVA

Aurora kinase A [11] = biological target: T2, Aurora kinase A (Homo sapiens, UniProt O14965); test: Inhibition of recombinant human Aurora A (1 to 403 residues) expressed in Escherichia coli using STK-substrate 2-biotin as substrate incubated for 15 mins in presence of 0.48 uM ATP by HTRF assay
T2 sequence (O14965 whole entry): T1 sequence (whole entry)

Aurora kinase A [12] = biological target: T2, Aurora kinase A; test: Inhibition of recombinant human Aurora A (1 to 403 residues) expressed in Escherichia coli using STK-substrate 2-biotin as substrate incubated for 15 mins in presence of 2.4uM ATP by HTRF assay
MDA-MB-231 [13] = test: Induction of apoptosis in human MDA-MB-231 cells assessed as necrotic cells at 5 uM incubated for 24 hrs by Annexin V-FITC staining based flow cytometry (Rvb= 1.67%); type: functional
[14] = Toxicity in BALB/c nude mouse xenografted with human MDA-MB-231 cells assessed as inflammatory cell infiltration in kidney at 15 mg/kg,ip every 2days for 20 days by Hematoxylin and Eosin staining based microscopy; type: organism-based; settings: in vivo, 480 h, time 20 day
MDA-MB-231 [15] = test: Induction of apoptosis in human MDA-MB-231 cells assessed as late apoptotic cells at 1.25 uM incubated for 24 hrs by Annexin V-FITC staining based flow cytometry (Rvb= 6.90%); type: functional
[16] = biological target: Aurora kinase B (Homo sapiens) (UniProt Q96GD4); test: Binding affinity to Aurora B in human MDA-MB-231 cells assessed as thermal stability at 46 to 62 degreeC at 1 uM incubated for 1 hrs by […] analysis; type: cell-based
Mus musculus = test: In vivo inhibition of Aurora signalling pathway in human MDA-MB-231 cells xenografted in BALB/c nude mouse assessed as decrease in Aurora A phosphorylation at Thr288 residue in tumor at 15 mg/kg,ip every 2days for 20 days by Western blot analysis; type: functional, organism-based; settings: time 20.0 day
[17] = biological target: T1, Aurora kinase A (Homo sapiens); test: Irreversible inhibition of recombinant human Aurora A (1 to 403 residues) expressed in Escherichia coli assessed as ratio of Kinact/Ki using STK-substrate 2-biotin as substrate at 0.625 to 40 uM incubated upto 7000 sec in presence of ATP by HTRF assay; settings: dose 0.625-40 µM
MDA-MB-231 [18] = test: Antiproliferative activity against human MDA-MB-231 cells assessed as inhibition of cell proliferation incubated for 48 hrs by CCK-8 assay; type: functional, cell-based; settings: MDA-MB-231, 48 h
A549 = test: Antiproliferative activity against human A549 cells assessed as inhibition of cell proliferation incubated for 48 hrs by CCK-8 assay; type: functional, cell-based; settings: A549, 48 h
MDA-MB-231 [19] = test: Induction of apoptosis in human MDA-MB-231 cells assessed as necrotic cells at 1.25 uM incubated for 24 hrs by Annexin V-FITC staining based flow cytometry (Rvb= 1.67%); type: functional
Aurora kinase A [20] = biological target: T2, Aurora kinase A; test: Inhibition of recombinant human Aurora A (1 to 403 residues) expressed in Escherichia coli using STK-substrate 2-biotin as substrate incubated for 40 mins in presence of 7.2uM ATP by HTRF assay
[21] = Toxicity in BALB/c nude mouse xenografted with human MDA-MB-231 cells assessed as inflammatory cell infiltration in liver at 15 mg/kg,ip every 2days for 20 days by Hematoxylin and Eosin staining based microscopy; type: organism-based; settings: in vivo, 480 h, time 20 day
Aurora kinase A [22] = biological target: T2, Aurora kinase A; test: Inhibition of recombinant human Aurora A (1 to 403 residues) expressed in Escherichia coli using STK-substrate 2-biotin as substrate incubated for 40 mins in presence of 2.4uM ATP by HTRF assay
Aurora kinase A [23] = biological target: T2, Aurora kinase A; test: Inhibition of recombinant human Aurora A (1 to 403 residues) expressed in Escherichia coli using FAM-labeled peptide as substrate preincubated for 10 mins followed by substrate addition and measured after 20 mins in presence of ATP by HTRF assay
MDA-MB-231 [24] = test: Induction of apoptosis in human MDA-MB-231 cells assessed as live cells at 1.25 uM incubated for 24 hrs by Annexin V-FITC staining based flow cytometry (Rvb= 88.1%); type: functional

k el at 1 h, 1.75 µM [3]: 0.000467 s⁻¹ | Activity [4]: Active | microsomal CLint at 1.75 µM [8]: 71.3 µL/min/mg | IC50 (HeLa): 6990 nM | inhibition [10]: inactive | IC50 (Aurora kinase A [11]): 1.49 nM | IC50 (Aurora kinase A [12]): 4.01 nM | Activity [16]: inactive | Ratio [17]: 6.02 10^3/M/s | IC50 (MDA-MB-231 [18]): 1540 nM | IC50 (A549): 3080 nM | IC50 (Aurora kinase A [20]): 5.19 nM | IC50 (Aurora kinase A [22]): 2.77 nM | IC50 (Aurora kinase A [23]): 1.7 nM
SMILES: C=CC(=O)Nc1ccc(-c2nc(Nc3cc(C)[nH]n3)c3ccc(N4CCN(C)CC4)cc3n2)cc1
Activity [1]: Non-Toxic | Activity [2]: Non-Toxic | Activity (MDA-MB-231 [5]): 28.6% | Activity (MDA-MB-231 [6]): 10.5% | Activity [7]: Non-Toxic | Activity (MDA-MB-231 [9]): 62.6% | Activity (MDA-MB-231 [13]): 0.27% | Activity [14]: Non-Toxic | Activity (MDA-MB-231 [15]): 18.1% | inhibition (Mus musculus): Active | Activity (MDA-MB-231 [19]): 1.83% | Activity [21]: Non-Toxic | Activity (MDA-MB-231 [24]): 69.5%
